Experimental data as given in patent US11396495B2, “Amine compound for inhibiting SSAO/VAP-1 and use thereof” (SUNSHINE LAKE PHARMA CO., LTD., priority 2017, dated 2022).
Counter-ions that a name gives are not always drawn.

Key:
[1] = target: rat adipose tissue homogenate SSAO/VAP-1 (Rattus norvegicus (Rat), UniProt O08590); assay: Determination of inhibitory activity of rat adipose tissue homogenate SSAO/VAP-1; format: biochemical, Sprague Dawley rats; conditions: rat abdominal adipose tissue homogenate, pargyline pretreated, 37° C.
Method: 2. Determination of Inhibitory Activity of Rat Adipose Tissue Homogenate SSAO/VAP-1
Test purpose: The following methods can be used to determine the inhibitory activity of the compounds of the invention for rat adipose tissue homogenate SSAO/VAP-1.
The abdominal fat removed from Sprague Dawley rats was a tissue rich in SSAO/VAP-1. 5 mL Of HES buffer per gram of rat abdominal adipose tissue (20 mM Sodium N-piperazine-N-ethanesulfonate, 1 mm EDTA, 250 mM sucrose, 1×PMSF and 100 mM (3-glycerol phosphate disodium salt hydrate, pH 7.4) was added for homogenizing. The fat tissue was homogenized for 3 min by using Bertin precellys 24 multi-functional sample homogenizer of Bertin technologies, and the fat tissue homogenate was centrifuged for 10 min at 4° C. and 20000 g, and the middle transparent supernatant was taken. The supernatant was incubated with 0.5 mm Pargyline hydrochloride dissolved in HES buffer at 37° C. for 30 min. After 30 min incubation, 25 μl of fat tissue supernatant was added to the standard 96 well plate. The test compound was dissolved in DMSO and diluted to 6 concentrations. 25 μL Of the test compounds with different concentrations was added to each well containing the supernatant of fat tissue and incubated at 37° C. for 30 min. After incubation, 50 μL of the reaction mixture containing 80 μM benzylamine hydrochloride (containing 100 μM Amplex® red and 0.2 U/mL HRP, Amplex® Red Hydrogen peroxideperoxidase assay kit) was added to the corresponding wells and incubated at 37° C. for 30 min. After 30 min, the relative fluorescence unit (RFU) was read by using PHERAstar FSX enzyme marker of BMG LABTECH at 540 nm excitation and 580 nm emission. The curve was drawn by using the graph pad prism 5 software, and the IC50 value was calculated. The results were shown in table 2, wherein the compound listed in table 2 is the compound in the preparation examples with the same compound number: Table 2: inhibitory activity of the compound of examples of the invention for SSAO/VAP-1 of fat tissue homogenate

[2] = target: Human recombinant SSAO/VAP-1 (Homo sapiens (Human), UniProt Q16853); assay: Determination of inhibitory activity of human recombinant SSAO/VAP-1 (Amplex Red, benzylamine); format: biochemical; conditions: human recombinant SSAO/VAP-1, 30 min preincubation at room temperature; read-out: SSAO/VAP-1(Human recombinant protein) IC50/nM
Method: 1. Determination of Inhibitory Activity of Human Recombinant SSAO/VAP-1
Test purpose: The following methods can be used to determine the inhibitory activity of the compounds described in the examples of the invention for human recombinant SSAO/VAP-1.
Human recombinant SSAO/VAP-1 (VAP-1, human) purchased from Sigma, Cat. No. SRP6241;
The test compound was dissolved in DMSO and diluted to 10 concentrations in 4-fold serial dilution. In 384 well plates, 25 μL of human recombinant SSAO/VAP-1 (1.6 μg/ml) was added to each well. 100 nL of test compounds with different concentrations were added to each well containing human recombinant SSAO/VAP-1 and incubated at room temperature for 30 min. After 30 min incubation, 25 μl of Amplex® red monoamine oxidase assay kit (containing a reaction mixture of 200 μm Amplex Red reagent, 1 U/ml HRP and 1 mm benzylamine hydrochloride) was added to the corresponding well, and incubated at room temperature and dark for 60 min. After 60 min, the relative fluorescence unit (RFU) was read by using PerkinElmer's Envision at 530-560 nm excitation and 590 nm emission. The curve was drawn by using the graph pad prism 5 software, and the IC50 value was calculated. The results were shown in table 1, wherein the compound listed in table 1 is the compound in the preparation examples with the same compound number: […]

Chain of Human recombinant SSAO/VAP-1 (Q16853 whole entry): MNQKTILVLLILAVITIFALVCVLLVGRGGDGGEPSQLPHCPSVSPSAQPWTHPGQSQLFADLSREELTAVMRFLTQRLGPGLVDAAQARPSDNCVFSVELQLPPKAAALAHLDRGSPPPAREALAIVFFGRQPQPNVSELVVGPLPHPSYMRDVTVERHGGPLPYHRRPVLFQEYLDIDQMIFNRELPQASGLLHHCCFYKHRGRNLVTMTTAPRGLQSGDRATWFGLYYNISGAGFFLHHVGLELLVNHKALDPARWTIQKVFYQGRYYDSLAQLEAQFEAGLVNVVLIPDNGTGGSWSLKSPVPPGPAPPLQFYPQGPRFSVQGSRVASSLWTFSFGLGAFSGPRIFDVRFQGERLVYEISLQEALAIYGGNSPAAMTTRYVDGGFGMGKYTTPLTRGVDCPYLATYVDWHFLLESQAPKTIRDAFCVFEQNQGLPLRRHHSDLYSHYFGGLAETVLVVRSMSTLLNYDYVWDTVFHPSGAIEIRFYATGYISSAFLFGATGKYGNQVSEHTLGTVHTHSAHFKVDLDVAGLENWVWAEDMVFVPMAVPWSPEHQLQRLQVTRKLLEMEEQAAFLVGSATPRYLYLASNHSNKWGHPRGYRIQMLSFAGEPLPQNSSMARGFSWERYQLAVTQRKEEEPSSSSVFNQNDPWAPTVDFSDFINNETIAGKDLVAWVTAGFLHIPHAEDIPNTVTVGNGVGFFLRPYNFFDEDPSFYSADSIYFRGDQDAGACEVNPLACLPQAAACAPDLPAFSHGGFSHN
Chain of rat adipose tissue homogenate SSAO/VAP-1 (O08590 whole entry): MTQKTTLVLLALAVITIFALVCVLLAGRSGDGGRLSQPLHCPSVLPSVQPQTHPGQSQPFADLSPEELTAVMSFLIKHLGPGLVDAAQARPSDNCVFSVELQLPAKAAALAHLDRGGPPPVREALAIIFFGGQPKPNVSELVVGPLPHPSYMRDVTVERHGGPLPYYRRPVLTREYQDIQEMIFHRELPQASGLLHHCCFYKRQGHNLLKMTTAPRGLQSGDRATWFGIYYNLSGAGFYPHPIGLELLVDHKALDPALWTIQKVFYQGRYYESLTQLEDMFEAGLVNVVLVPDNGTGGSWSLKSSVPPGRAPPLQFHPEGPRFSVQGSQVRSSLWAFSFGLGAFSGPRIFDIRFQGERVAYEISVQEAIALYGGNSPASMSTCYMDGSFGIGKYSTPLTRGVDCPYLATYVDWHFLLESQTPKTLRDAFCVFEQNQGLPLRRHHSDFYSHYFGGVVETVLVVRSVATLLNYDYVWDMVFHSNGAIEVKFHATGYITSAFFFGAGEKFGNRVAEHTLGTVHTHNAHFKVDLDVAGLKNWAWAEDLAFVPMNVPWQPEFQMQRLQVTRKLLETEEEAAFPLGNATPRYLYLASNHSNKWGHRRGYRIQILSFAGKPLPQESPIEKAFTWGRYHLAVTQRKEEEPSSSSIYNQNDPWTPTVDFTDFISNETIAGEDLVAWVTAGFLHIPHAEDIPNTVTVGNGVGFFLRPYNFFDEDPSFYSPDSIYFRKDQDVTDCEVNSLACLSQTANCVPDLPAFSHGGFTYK

Row | IC50 [1] [nM] | IC50 [2] [nM] | Structure (SMILES)
1 | 10.1 |  | NC/C(=C\F)COc1ccc2c(c1)NC(=O)CC2 [Compound 1, 7-[(E)-2-(aminomethyl)-3-fluoro-allyloxy]-3,4-dihydro-1H-quinolin-2-one hydrochloride]
2 | 11.6 | 1.01 | NC/C(=C/F)COc1ccc2c(c1)NC(=O)CC2 [Compound 2, 7-[(Z)-2-(aminomethyl)-3-fluoro-allyloxy]-3,4-dihydro-1H-quinolin-2-one hydrochloride]
3 | 4.87 | 0.37 | NC/C(=C\F)COc1ccc2c(c1)CCN(c1ccccc1)C2=O [Compound 5, 6-[(E)-2-(aminomethyl)-3-fluoro-allyloxy]-2-phenyl-3,4-dihydroisoquinolin-1-one hydrochloride]
4 |  | 0.04 | NC/C(=C/F)COc1ccc2c(c1)CCN(c1ccccc1)C2=O [Compound 6, 6-[(Z)-2-(aminomethyl)-3-fluoro-allyloxy]-2-phenyl-3,4-dihydroisoquinolin-1-one hydrochloride]
5 | 8.98 | 0.09 | NC/C(=C\F)COc1ccc2c(c1)CCN(c1ncccn1)C2=O [Compound 7, 6-[(E)-2-(aminomethyl)-3-fluoro-allyloxy]-2-(pyrimidin-2-yl)-3,4-dihydroisoquinolin-1-one hydrochloride]
6 | 8.84 | 0.32 | CN1CCc2cc(OC/C(=C/F)CN)ccc2C1=O [Compound 8, 6-[(E)-2-(aminomethyl)-3-fluoro-allyloxy]-2-methyl-3,4-dihydroisoquinolin-1-one hydrochloride]
7 | 8.05 | 0.61 | CN1CCc2cc(OC/C(=C\F)CN)ccc2C1=O [Compound 9, 6-[(Z)-2-(aminomethyl)-3-fluoro-allyloxy]-2-methyl-3,4-dihydroisoquinolin-1-one hydrochloride]
8 | 9.54 |  | NC/C(=C\F)COc1ccc2c(c1)CCN(CC1CCOCC1)C2=O [Compound 10, 6-[(E)-2-(aminomethyl)-3-fluoro-allyloxy]-2-(tetrahydropyranyl-4-methylene)-3,4-dihydroisoquinolin-1-one hydrochloride]
9 | 11.7 | 0.82 | NC/C(=C/F)COc1ccc2c(c1)CCN(CC1CCOCC1)C2=O [Compound 11, 6-[(Z)-2-(aminomethyl)-3-fluoro-allyloxy]-2-(tetrahydropyranyl-4-methylene)-3,4-dihydroisoquinolin-1-one hydrochloride]
10 | 8.03 | 0.11 | CCOC(=O)CN1CCc2cc(OC/C(=C\F)CN)ccc2C1=O [Compound 13, ethyl 2-[6-[(Z)-2-(aminomethyl)-3-fluoro-allyloxy]-1-oxo-3,4-dihydroisoquinolin-2-yl]acetate hydrochloride]
11 | 6.01 | 0.22 | NC/C(=C\F)COc1ccc2c(c1)CCN(C1CCOCC1)C2=O [Compound 16, 6-[(E)-2-(aminomethyl)-3-fluoro-allyloxy]-2-(tetrahydropyran-4-yl)-3,4-dihydroisoquinolin-1-one hydrochloride]
12 | 5.03 | 0.58 | NC/C(=C/F)COc1ccc2c(c1)CCN(C1CCOCC1)C2=O [Compound 17, 6-[(Z)-2-(aminomethyl)-3-fluoro-allyloxy]-2-(tetrahydropyran-4-yl)-3,4-dihydroisoquinolin-1-one hydrochloride]
13 |  | 0.91 | NC/C(=C/F)COc1ccc2c(c1)CCN(CCOCc1ccccc1)C2=O [Compound 21, 6-[(Z)-2-(aminomethyl)-3-fluoro-allyloxy]-2-(2-benzyloxyethyl)-3,4-dihydro isoquinolin-1-one hydrochloride]
14 |  | 1.53 | NC/C(=C\F)COc1ccc2c(c1)CCN(c1ccccn1)C2=O [Compound 28, 6-[(E)-2-(aminomethyl)-3-fluoro-allyloxy]-2-(2-pyridyl)-3,4-dihydroisoquinolin-1-one hydrochloride]
15 | 6.22 |  | NC/C(=C\F)COc1ccc2c(c1)CCNS2(=O)=O [Compound 32, (E)-2-[(1,1-dioxo-3,4-dihydro-2H-benzo[e][1,2]thiazin-6-yl)oxymethyl]-3-fluoro-prop-2-enyl-1-amine hydrochloride]
16 |  | 1.16 | NC/C(=C\F)COc1ccc2c(c1)CCN(c1ccccc1F)C2=O [Compound 34, 6-[(E)-2-(aminomethyl)-3-fluoro-allyloxy]-2-(2-fluorophenyl)-3,4-dihydroisoquinolin-1-one hydrochloride]
17 |  | 0.71 | NC/C(=C/F)COc1ccc2c(c1)CCN(c1ccccc1F)C2=O [Compound 35, 6-[(Z)-2-(aminomethyl)-3-fluoro-allyloxy]-2-(2-fluorophenyl)-3,4-dihydroisoquinolin-1-one hydrochloride]
18 |  | 0.68 | N#Cc1ccc(N2CCc3cc(OC/C(=C/F)CN)ccc3C2=O)cc1 [Compound 38, 4-[6-[(E)-2-(aminomethyl)-3-fluoro-allyloxy]-1-oxo-3,4-dihydroisoquinolin-2-yl]benzonitrile hydrochloride]
19 |  | 0.53 | N#Cc1ccc(N2CCc3cc(OC/C(=C\F)CN)ccc3C2=O)cc1 [Compound 39, 4-[6-[(Z)-2-(aminomethyl)-3-fluoro-allyloxy]-1-oxo-3,4-dihydroisoquinolin-2-yl]benzonitrile hydrochloride]
20 |  | 1 | NC/C(=C\F)COc1ccc2c(c1)CCN(c1nccs1)C2=O [Compound 40, 6-[(E)-2-(aminomethyl)-3-fluoro-allyloxy]-2-thiazol-2-yl-3,4-dihydroisoquinolin-1-one hydrochloride]
21 |  | 0.63 | NC/C(=C/F)COc1ccc2c(c1)CCN(c1nccs1)C2=O [Compound 41, 6-[(Z)-2-(aminomethyl)-3-fluoro-allyloxy]-2-thiazol-2-yl-3,4-dihydroisoquinolin-1-one hydrochloride]
22 |  | 1.13 | NC/C(=C\F)COc1ccc2c(c1)CCN(Cc1ccon1)C2=O [Compound 42, 6-[(E)-2-(aminomethyl)-3-fluoro-allyloxy]-2-(isoxazol-3-yl-methyl)-3,4-dihydroisoquinolin-1-one hydrochloride]
23 |  | 0.71 | NC/C(=C/F)COc1ccc2c(c1)CCN(Cc1ccon1)C2=O [Compound 43, 6-[(Z)-2-(aminomethyl)-3-fluoro-allyloxy]-2-(isoxazol-3-yl-methyl)-3,4-dihydroisoquinolin-1-one hydrochloride]
24 |  | 1.04 | NC/C(=C/F)COc1ccc2c(c1)CCN(c1ccccc1)C2 [Compound 53, (Z)-3-fluoro-2-[(2-phenyl-3,4-dihydro-1H-isoquinolin-6-yl)oxymethyl]prop-2-enyl-1-amine hydrochloride]
25 |  | 0.82 | COc1ncc(N2CCc3cc(OC/C(=C\F)CN)ccc3C2=O)cn1 [Compound 55, 6-[(Z)-2-[(aminomethyl)-3-fluoro-allyloxy]-2-(2-methoxypyrimidin-5-yl)-3,4-dihydroisoquinolin-1-one hydrochloride]
26 |  | 1.91 | COC(=O)CCN1CCc2cc(OC/C(=C/F)CN)ccc2C1=O [Compound 56, methyl 3-[6-[(E)-2-(aminomethyl)-3-fluoro-allyloxy]-1-oxo-3,4-dihydroisoquinolin-2-yl]propionate hydrochloride]
27 |  | 1.27 | COC(=O)CCN1CCc2cc(OC/C(=C\F)CN)ccc2C1=O [Compound 57, methyl 3-[6-[(Z)-2-(aminomethyl)-3-fluoro-allyloxy]-1-oxo-3,4-dihydroisoquinolin-2-yl]propionate hydrochloride]
28 |  | 1.17 | COC(=O)CN1CCc2cc(OC/C(=C/F)CN)ccc2C1=O [Compound 58, methyl 2-[6-[(E)-2-(aminomethyl)-3-fluoro-allyloxy]-1-oxo-3,4-dihydroisoquinolin-2-yl]acetate hydrochloride]
29 |  | 1.3 | COC(=O)CN1CCc2cc(OC/C(=C\F)CN)ccc2C1=O [Compound 59, methyl 2-[6-[(Z)-2-(aminomethyl)-3-fluoro-allyloxy]-1-oxo-3,4-dihydroisoquinolin-2-yl]acetate hydrochloride]
